Measured values published in US20040265323A1, “Compositions comprising pathogen elicited epithelial chemoattractant (eicosanoid hepoxilin A3), inhibitors thereof and methods of use thereof” (priority 2003, published 2004).
Entries after “also recorded” stand apart in the source; their conditions may differ.

What was measured:
Assay type in all cases: cell-based, human
[1] = test system: PMN transmigration across T84 cell monolayers; assay: PMN transepithelial migration to imposed gradients of lipids across T84 monolayers; conditions: imposed gradients across T84 cell monolayers, basolateral-to-apical
Description: Crude preparations of PEEC were collected from the apical surface of polarized T84 cell monolayers following infection with S. typhimurium SL1344 as previously described (McCormick et al., 1998). For these experiments, T84 intestinal epithelial cells (passages 45 to 65) were grown in a 1:1 mixture of Dulbecco-Vogt modified Eagles medium and Ham's F-12 medium supplemented with 15 mM Hepes buffer (pH 7.5), 14 mM NaHCO3, 40 mg/liter penicillin, 8 mg/liter ampicillin, 90 mg/liter streptomycin and 5% newborn calf serum. Polarized monolayers of T84 cells were formed and maintained on 0.33 cm^2 ring-supported collagen-coated polycarbonate filters (Costar Corp., Cambridge, Mass.) as previously described (Madara et al., 1992) with recently detailed modifications (Dharmsathaphorn and Madara, 1990). T84 cell monolayers reached a steady-state resistance 4 to 6 days after plating with some variability largely related to cell passage number. Cell culture inserts of inverted monolayers, used to study transmigration of PMN in the physiological basolateral-to-apical direction, were constructed as previously described (Madara et al., 1992; Dharmsathaphorn and Madara, 1990; Nash et al., 1991).
(§1) It was further examined if hepoxilin A3 acts in a gradient fashion to drive PMN migration from the basolateral to the apical epithelial surface. For these experiments, the physiologically directed (basolateral-to-apical) PMN transepithelial migration assay using cell culture inserts of inverted T84 monolayers has been used (McCormick et al., 1993; Parkos et al., 1992). Human PMN were isolated from normal volunteers, as described elsewhere (Parkos et al., 1992; Henson and Oades, 1975). PMN transmigration results were represented as PMN cell equivalents (CE) derived from a daily standard PMN dilution curve. PMN which completely traversed the monolayer were represented as the number of PMN (CE/ml in a total volume of 1 ml). Values were expressed as the mean and SD of an individual experiment done in triplicate repeated at least 3 times.
Arachidonic acid is the initial substrate used by a variety of metabolic pathways involving lipoxygenase (LO) activities—enzymes that add hydroxyl groups at specific carbon atoms of this 20-carbon fatty acid. […] Therefore, in addition to hepoxilin A3, a wide range of arachidonic acid metabolites for their ability to incite the transmigration of PMNs across T84 monolayers in vitro was examined (Table 1). […] This is consistent with previous reports that LTB4 is capable of inducing PMN transmigration.

PMN [2] = assay: PMN intracellular Ca2+ mobilization; conditions: 5 μg/ml, FIG. 4B
Excerpt: Further, crude PEEC preparations were collected from postinfected T84 cells monolayers. Samples were first passed through an Amicon ultra-filtration apparatus (Millipore Corp.; Bedford, Mass.) fitted with a 2,000 Da cut-off membrane. Filtrate components were bound to a Backerbond spe™ octadecyl extraction column (J. T. Baker; Philipsburg, N.J.) that was subsequently eluted with water, hexane, and finally methanol. The methanol fraction was dried under vacuum and resuspended in 50:50 (vol:vol) methanol:2 mM Tris HCl (pH 7.5) and injected onto a Vydac C18 (10 μm; 300 Å) semi-preparative column ([…]) equilibrated with 2 mM Tris-HCl (pH 7.5). A methanol gradient of 1-10% over 10 minutes, then 10-60% over 25 minutes, followed by 60-100% over 45 minutes (all at room temperature) was used to isolate active PEEC fractions. Active fractions, having no detectable absorbance at 280 nm and weak absorbance at 214 nm, were analyzed using a Genesis C18 (4 μm, 120 Å) analytical HPLC column (4.6×150 mm) equilibrated with 5 mM triethylamine/acetic acid (pH 7.2). […] (FIG. 2A and B).
(§2) To substantiate the notion that hepoxilin A3 was in fact the molecule responsible for PEEC bioactivity, it was examined whether synthetic hepoxilin A3 (BIOMOL, Plymouth Meeting, Pa.) could recapitulate PEEC bioactivity. […] Thus, authentic hepoxilin A3 recapitulates all known aspects of PEEC bioactivity consistent with the notion that hepoxilin A3 is in fact PEEC's active component.

PMN [3] = assay: PMN degranulation assessed by elastase release
Excerpt: as §2

[4] = test system: S. typhimurium-induced PMN transepithelial migration, T84 cells; assay: Inhibition of S. typhimurium-induced PMN transepithelial migration across T84 monolayers; conditions: for inhibition of S. typhimurium-induced PMN transepithelial migration: T84 incubated 1 hour with inhibitor, FIG. 9
Excerpt: as §1, with “PMN transmigration results were represented as PMN cell equivalents (CE) derived from a daily standard PMN dilution curve.” left out
Hepoxilin A3 is formed via the 12-lipoxygenase (LO) metabolism pathway of arachidonic acid. Therefore, the involvement of the 12-LO pathway in the ability of the enteric pathogen, S. typhimurium, to induce PMN transepithelial migration and elicit PEEC secretion was tested. […] For 12-LO inhibition, HBSS(+)-washed T84 cell monolayers were incubated in the presence baicalein [stock concentration at 1 mM in DMSO] for 48 hours at 37° C. Subsequently, S. typhimurium SL1344 was added to the apical surface of the T84 monolayers and after an incubation of 1 hour at 37° C., the cells were washed free of non-adherent bacteria and then processed for the PMN transmigration assay. […] For 5-LO inhibition, the T84 cells were washed with HBSS(+) and then were incubated for 24 hours in the presence of caffeic acid (stock concentration at 22 mM in DMSO). Both inhibitors were purchased form Biomol, Plymouth Meeting, Pa.
In each instance, the T84 cell monolayers were incubated for […] in the presence of the inhibitor prior to the addition of S. typhimurium.

IL-8 secretion = IL-8 secretion by S. typhimurium infected T84 cell monolayers; conditions: S. typhimurium infected T84, caffeic acid 22 μM
[5] = test system: PEEC/hepoxilin A3 secretion; assay: Apical PEEC/hepoxilin A3 release from S. typhimurium infected T84 cell monolayers
Excerpt: T84 cell monolayers were infected with S. typhimurium in the absence or presence of the 12-LO enzyme inhibitor and apical supernatants were examined for PEEC bioactivity. […] Moreover, since it had been previously shown that S. typhimurium via its effector SipA initiates an ARF6-dependent lipid-signaling cascade that directs the activation of PKC and release of PEEC, it was further examined if blocking PKC activity (which would occur upstream of 12-LO) also corresponds with a reduction in hepoxilin A3 bioactivity and release, as one would predict.

SMILES | PMN transepithelial migration (PEEC activity) induced by added lipid [1] | other results
CCCCC/C=C\C[C@@H](O)/C=C/C=C/C=C/[C@@H](O)CCCC(=O)O (relative stereo) [trans LTB4] | failed to support events observed with hepoxilin A3 | 
CCCCC/C=C\C/C=C\C/C=C\C=C\C(=O)CCCC(=O)O [5-KETE] | failed to effect a transmigration of PMNs | 
CCCCC/C=C\C[C@@H](O)/C=C/C=C\C/C=C\CCCC(=O)O [12(R)-HETE] | no PMN transmigration activity was observed | intracellular Ca2+ in PMN (PMN [2]): failed to cause an increase in Ca^2+ mobilization
CCCCC/C=C\C[C@H](O)/C=C/C=C\C/C=C\CCCC(=O)O [12(S)-HETE] | no PMN transmigration activity was observed | 
CCCCC[C@H](O)/C=C/C=C\C/C=C\C/C=C\CCCC(=O)O [15(S)-HETE] | only a low activity of PMN transmigration was observed | 
CCCCC/C=C\C/C=C\C/C=C\C/C=C\CCCC(=O)O [Arachidonic acid] | could enhance the amount of PMN transmigration | 
CCCCC/C=C\C[C@@H](O)/C=C/C=C/C=C\[C@@H](O)CCCC(=O)O [LTB4] |  | PMN degranulation (PMN [3]): causes activation and degranulation
O=C(O)/C=C/c1ccc(O)c(O)c1 [caffeic acid] |  | S. typhimurium-induced PMN transepithelial migration with lipoxygenase inhibitor ([4]; T84 pre-treated: baicalein 48 hours, caffeic acid 24 hours): failed to prevent S. typhimurium-induced PMN transepithelial migration; also recorded: no inhibition; IL-8 secretion (IL-8 secretion): 558 ± 26 pg/mL
COc1ccc2c(c[n+](C)c3c4cc5c(cc4ccc23)OCO5)c1OC.[Cl-] [chelerethyrine chloride] |  | PEEC/hepoxilin A3 release ([5]; 5 μM prior to infection with wild-type S. typhimurium): < 1.0 pmol
C=C(CC)C(=O)c1ccc(OCC(=O)O)c(Cl)c1Cl [ethacrynic acid] |  | inhibition of S. typhimurium-induced PMN transepithelial migration [4]: significantly inhibited
CCCCC/C=C\C[C@@H]1O[C@H]1C(O)/C=C\C/C=C\CCCC(=O)O (stereo partly shown) [hepoxilin B3] | inactive; also recorded: failed to support events observed with hepoxilin A3 | 
CCCCC/C=C\C/C=C\CCCCCCCC(=O)O [linoleic acid] | failed to demonstrate any PEEC activity | 
CCCN(CCC)S(=O)(=O)c1ccc(C(=O)O)cc1 [probenecid] |  | inhibition of S. typhimurium-induced PMN transepithelial migration [4]: significantly inhibited
CC[C@]1(O)C[C@@H]2CN(CCc3c([nH]c4ccccc34)[C@@](C(=O)OC)(c3cc4c(cc3OC)N(C)[C@H]3[C@@](O)(C(=O)OC)[C@H](OC(C)=O)[C@]5(CC)C=CCN6CC[C@]43[C@@H]65)C2)C1 [vinblastine] |  | inhibition at 0.0005 µM ([5]; Homo sapiens, ~0.5 nM, pathogen-induced, T84, read-out: inhibition of hepoxilin A3 secreted): ~60%
